Assay results as given in US11254663B2 (BRISTOL-MYERS SQUIBB COMPANY, priority 2019, dated 2022).

Molecular target: FXR (Homo sapiens (Human), UniProt Q96RI1)
Assay: transient human FXR/Gal4-luciferase reporter assay
Format: cell-based
Details: not given
Procedure, shortened: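 Compound exposure ran overnight at 37 °C and activity was measured as luminescence with Steady-Glo reagent. The cells were a HEK293 line stably expressing firefly luciferase under five Gal4 response elements. They were transiently transfected, one night beforehand, with a plasmid encoding Gal4 DNA-binding domain fused to the human FXR ligand-binding domain.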

Sequence of FXR (Q96RI1 262-486): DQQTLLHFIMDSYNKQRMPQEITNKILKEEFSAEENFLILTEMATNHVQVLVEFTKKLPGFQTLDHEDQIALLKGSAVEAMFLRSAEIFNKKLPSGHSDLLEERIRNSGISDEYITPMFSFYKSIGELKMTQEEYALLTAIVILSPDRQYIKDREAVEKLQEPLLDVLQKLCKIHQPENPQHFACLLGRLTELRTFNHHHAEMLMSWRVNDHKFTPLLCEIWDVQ

Structure (SMILES)	EC50 [µM]
CS(=O)(=O)Nc1ccc(-c2cccc(N(CC34CCC(c5nc(C(F)F)no5)(CC3)CC4)C(=O)C34CC(F)(C3)C4)c2)cc1 [Example 469, N-((4-(3-(difluoromethyl)-1,2,4-oxadiazol-5-yl)bicyclo[2.2.2]octan-1-yl)methyl)-3-fluoro-N-(4′-(methylsulfonamido)-[1,1′-biphenyl]-3-yl)bicyclo[1.1.1]pentane-1-carboxamide]	0.654
CCOc1ncc(-c2cccc(N(CC34CCC(c5nc(C(F)F)no5)(CC3)CC4)C(=O)C34CC(F)(C3)C4)c2)cn1 [Example 470, N-((4-(3-(difluoromethyl)-1,2,4-oxadiazol-5-yl)bicyclo[2.2.2]octan-1-yl)methyl)-N-(3-(2-ethoxypyrimidin-5-yl)phenyl)-3-fluorobicyclo[1.1.1]pentane-1-carboxamide]	0.164
Cc1nc2ccc(-c3cccc(N(CC45CCC(c6nc(C(F)F)no6)(CC4)CC5)C(=O)C45CC(F)(C4)C5)c3)cc2s1 [Example 471, N-((4-(3-(difluoromethyl)-1,2,4-oxadiazol-5-yl)bicyclo[2.2.2]octan-1-yl)methyl)-3-fluoro-N-(3-(2-methylbenzo[d]thiazol-6-yl)phenyl)bicyclo[1.1.1]pentane-1-carboxamide]	0.135
CC(C)(C)c1noc(C23CCC(CN(C(=O)C45CC(F)(C4)C5)c4cncc(-c5cnc(C6CC6)nc5)c4)(CC2)CC3)n1 [Example 473, N-((4-(3-(tert-butyl)-1,2,4-oxadiazol-5-yl)bicyclo[2.2.2]octan-1-yl)methyl)-N-(5-(2-cyclopropylpyrimidin-5-yl)pyridin-3-yl)-3-fluorobicyclo[1.1.1]pentane-1-carboxamide]	0.501
Cc1nc2ccc(-c3cncc(N(CC45CCC(c6nc(C(C)(C)C)no6)(CC4)CC5)C(=O)C45CC(F)(C4)C5)c3)cc2s1 [Example 474, N-((4-(3-(tert-butyl)-1,2,4-oxadiazol-5-yl)bicyclo[2.2.2]octan-1-yl)methyl)-3-fluoro-N-(5-(2-methylbenzo[d]thiazol-6-yl)pyridin-3-yl)bicyclo[1.1.1]pentane-1-carboxamide]	0.541
CC(C)(C)c1noc(C23CCC(CN(C(=O)C45CC(F)(C4)C5)c4cncc(-c5ccc(NS(C)(=O)=O)cc5)c4)(CC2)CC3)n1 [Example 475, N-((4-(3-(tert-butyl)-1,2,4-oxadiazol-5-yl)bicyclo[2.2.2]octan-1-yl)methyl)-3-fluoro-N-(5-(4-(methylsulfonamido)phenyl)pyridin-3-yl)bicyclo[1.1.1]pentane-1-carboxamide]	1.6
CCOc1ccc(-c2cncc(N(CC34CCC(c5nc(C(C)(C)C)no5)(CC3)CC4)C(=O)C34CC(F)(C3)C4)c2)cc1 [Example 476, N-((4-(3-(tert-butyl)-1,2,4-oxadiazol-5-yl)bicyclo[2.2.2]octan-1-yl)methyl)-N-(5-(4-ethoxyphenyl)pyridin-3-yl)-3-fluorobicyclo[1.1.1]pentane-1-carboxamide]	0.56
CCOc1ccc(-c2cncc(N(CC34CCC(c5nc(C(C)(C)C)no5)(CC3)CC4)C(=O)C34CC(F)(C3)C4)c2)cn1 [Example 477, N-((4-(3-(tert-butyl)-1,2,4-oxadiazol-5-yl)bicyclo[2.2.2]octan-1-yl)methyl)-N-(6′-ethoxy-[3,3′-bipyridin]-5-yl)-3-fluorobicyclo[1.1.1]pentane-1-carboxamide]	0.485
CC(C)(C)c1nc(C23CCC(CN(C(=O)C45CC(F)(C4)C5)c4cncc(-c5ccc6[nH]c(=O)oc6c5)c4)(CC2)CC3)no1 [Example 479, N-((4-(5-(tert-butyl)-1,2,4-oxadiazol-3-yl)bicyclo[2.2.2]octan-1-yl)methyl)-3-fluoro-N-(5-(2-oxo-2,3-dihydrobenzo[d]oxazol-6-yl)pyridin-3-yl)bicyclo[1.1.1]pentane-1-carboxamide]	0.367
CC(C)(C)c1nc(C23CCC(CN(C(=O)C45CC(F)(C4)C5)c4cncc(-c5cnc6nc(C7CC7)sc6c5)c4)(CC2)CC3)no1 [Example 480, N-((4-(5-(tert-butyl)-1,2,4-oxadiazol-3-yl)bicyclo[2.2.2]octan-1-yl)methyl)-N-(5-(2-cyclopropylthiazolo[4,5-b]pyridin-6-yl)pyridin-3-yl)-3-fluorobicyclo[1.1.1]pentane-1-carboxamide]	0.988
CC(C)(C)c1nc(C23CCC(CN(C(=O)C45CC(F)(C4)C5)c4cncc(-c5ccc(NS(C)(=O)=O)cc5)c4)(CC2)CC3)no1 [Example 481, N-((4-(5-(tert-butyl)-1,2,4-oxadiazol-3-yl)bicyclo[2.2.2]octan-1-yl)methyl)-3-fluoro-N-(5-(4-(methylsulfonamido)phenyl)pyridin-3-yl)bicyclo[1.1.1]pentane-1-carboxamide]	0.58
CCOc1ccc(-c2cncc(N(CC34CCC(c5noc(C(C)(C)C)n5)(CC3)CC4)C(=O)C34CC(F)(C3)C4)c2)cc1 [Example 482, N-((4-(5-(tert-butyl)-1,2,4-oxadiazol-3-yl)bicyclo[2.2.2]octan-1-yl)methyl)-N-(5-(4-ethoxyphenyl)pyridin-3-yl)-3-fluorobicyclo[1.1.1]pentane-1-carboxamide]	0.322
CC(C)(C)c1nc(C23CCC(CN(C(=O)C45CC(F)(C4)C5)c4cncc(-c5ccc(OC(F)F)cc5)c4)(CC2)CC3)no1 [Example 483, N-((4-(5-(tert-butyl)-1,2,4-oxadiazol-3-yl)bicyclo[2.2.2]octan-1-yl)methyl)-N-(5-(4-(difluoromethoxy)phenyl)pyridin-3-yl)-3-fluorobicyclo[1.1.1]pentane-1-carboxamide]	0.255
Cc1nc2ccc(-c3cncc(N(CC45CCC(c6noc(C(C)(C)C)n6)(CC4)CC5)C(=O)C45CC(F)(C4)C5)c3)cc2s1 [Example 484, N-((4-(5-(tert-butyl)-1,2,4-oxadiazol-3-yl)bicyclo[2.2.2]octan-1-yl)methyl)-3-fluoro-N-(5-(2-methylbenzo[d]thiazol-6-yl)pyridin-3-yl)bicyclo[1.1.1]pentane-1-carboxamide]	0.344
CS(=O)(=O)Nc1ccc(-c2cccc(N(CC34CCC(c5ccc(C(F)(F)F)cn5)(CC3)CC4)C(=O)C34CC(F)(C3)C4)c2)cc1 [Example 488, 3-fluoro-N-(4′-(methylsulfonamido)-[1,1′-biphenyl]-3-yl)-N-((4-(5-(trifluoromethyl)pyridin-2-yl)bicyclo[2.2.2]octan-1-yl)methyl)bicyclo[1.1.1]pentane-1-carboxamide]	0.876
CCOc1ccc(-c2cccc(N(CC34CCC(c5ccc(C(F)(F)F)cn5)(CC3)CC4)C(=O)C34CC(F)(C3)C4)c2)cc1 [Example 489, N-(4′-ethoxy-[1,1′-biphenyl]-3-yl)-3-fluoro-N-((4-(5-(trifluoromethyl)pyridin-2-yl)bicyclo[2.2.2]octan-1-yl)methyl)bicyclo[1.1.1]pentane-1-carboxamide]	1.64
O=C(N(CC12CCC(c3ccc(C(F)(F)F)cn3)(CC1)CC2)c1cccc(-c2cnc(C3CC3)nc2)c1)C12CC(F)(C1)C2 [Example 490, N-(3-(2-cyclopropylpyrimidin-5-yl)phenyl)-3-fluoro-N-((4-(5-(trifluoromethyl)pyridin-2-yl)bicyclo[2.2.2]octan-1-yl)methyl)bicyclo[1.1.1]pentane-1-carboxamide]	0.334
O=C(N(CC12CCC(c3ccc(C(F)(F)F)cn3)(CC1)CC2)c1cccc(-c2cnc(C(F)(F)F)nc2)c1)C12CC(F)(C1)C2 [Example 491, 3-fluoro-N-((4-(5-(trifluoromethyl)pyridin-2-yl)bicyclo[2.2.2]octan-1-yl)methyl)-N-(3-(2-(trifluoromethyl)pyrimidin-5-yl)phenyl)bicyclo[1.1.1]pentane-1-carboxamide]	1.63
CCOc1ccc(-c2cccc(N(CC34CCC(c5ccc(C(F)(F)F)cn5)(CC3)CC4)C(=O)C34CC(F)(C3)C4)c2)cn1 [Example 492, N-(3-(6-ethoxypyridin-3-yl)phenyl)-3-fluoro-N-((4-(5-(trifluoromethyl)pyridin-2-yl)bicyclo[2.2.2]octan-1-yl)methyl)bicyclo[1.1.1]pentane-1-carboxamide]	0.567

Same assay, conditions: Gal4-hFXR fusion construct, HEK293 reporter cells; response relative to 8 μM GW-4064

EC50 [µM]	Structure (SMILES)
0.758	CCOc1ncc(-c2cncc(N(CC34CCC(c5nc(C(C)(C)C)no5)(CC3)CC4)C(=O)C34CC(F)(C3)C4)c2)cn1 [Example 472, N-((4-(3-(tert-butyl)-1,2,4-oxadiazol-5-yl)bicyclo[2.2.2]octan-1-yl)methyl)-N-(5-(2-ethoxypyrimidin-5-yl)pyridin-3-yl)-3-fluorobicyclo[1.1.1]pentane-1-carboxamide]
1.1	CCOc1ncc(-c2cncc(N(CC34CCC(c5noc(C(C)(C)C)n5)(CC3)CC4)C(=O)C34CC(F)(C3)C4)c2)cn1 [Example 478, N-((4-(5-(tert-butyl)-1,2,4-oxadiazol-3-yl)bicyclo[2.2.2]octan-1-yl)methyl)-N-(5-(2-ethoxypyrimidin-5-yl)pyridin-3-yl)-3-fluorobicyclo[1.1.1]pentane-1-carboxamide]
0.041	CC(C)(C)c1nc(C23CCC(CN(C(=O)C45CC(F)(C4)C5)c4cncc(-c5ncc(OC(F)F)cn5)c4)(CC2)CC3)no1 [Example 485, N-((4-(5-(tert-butyl)-1,2,4-oxadiazol-3-yl)bicyclo[2.2.2]octan-1-yl)methyl)-N-(5-(5-(difluoromethoxy)pyrimidin-2-yl)pyridin-3-yl)-3-fluorobicyclo[1.1.1]pentane-1-carboxamide]
0.089	CC(C)(C)c1nc(C23CCC(CN(C(=O)C45CC(F)(C4)C5)c4cncc(-c5ccc(OC(F)F)cn5)c4)(CC2)CC3)no1 [Example 486, N-((4-(5-(tert-butyl)-1,2,4-oxadiazol-3-yl)bicyclo[2.2.2]octan-1-yl)methyl)-N-(5-(difluoromethoxy)-[2,3′-bipyridin]-5′-yl)-3-fluorobicyclo[1.1.1]pentane-1-carboxamide]
0.418	CCOc1ncc(-c2cccc(N(CC34CCC(c5ccc(C(F)(F)F)cn5)(CC3)CC4)C(=O)C34CC(F)(C3)C4)c2)cn1 [Example 487, N-(3-(2-ethoxypyrimidin-5-yl)phenyl)-3-fluoro-N-((4-(5-(trifluoromethyl)pyridin-2-yl)bicyclo[2.2.2]octan-1-yl)methyl)bicyclo[1.1.1]pentane-1-carboxamide]
